Among the data in patent US20220298115A1, “SMALL MOLECULE INHIBITORS OF ACETYL COENZYME A SYNTHETASE SHORT CHAIN 2 (ACSS2)” (Curadev Pharma Pvt. Ltd., priority 2019, published 2022) are IC50 values, retold here.

The target in one assay is T1, human ACSS2 (Homo sapiens, UniProt Q9NR19).
T1 construct: The cytosolic fraction of BT474 cells was used as a source of the ACSS2 enzyme; endogenous in cells; host or cells: BT474 cells (cytosolic fraction)
The experiment in a line: ACSS2 enzyme assay (acetyl-CoA formation, LC-MS/MS). The class given is biochemical. The conditions noted are these: cytosolic fraction of BT474 cells as ACSS2 source; 100 μM acetate, CoA and ATP; 2 h at 25° C.; read-out: Enzyme Activity (IC50 range). The method, boiled down: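 Enzyme source was BT474 cytosolic fraction (100 ng), preincubated 5 min with compound in 25 mM Tris-HCl pH7.4, 1 mM MgCl2, 1 mM DTT, 0.05% Tween20, 1% DMSO. Reaction started with 100 μM each of acetate, CoA and ATP, 2 h at 25 °C, stopped with TCA; acetyl-CoA quantified by LC-MS/MS.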

The test system of assay [1] is [14C] acetate incorporation in macromolecules, BT474 cells. The experiment in a line: Cell based [14C] acetate incorporation assay. The conditions noted are these: Homo sapiens, BT-474, 3 h at 37° C., read-out: Cellular Activity (IC50 range). A digest of the protocol: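 BT474 cells (4×10^4/well, plated overnight) were preincubated with compound for 10 min at 37°C in HBSS. They were then given 0.1 μCi [14C]acetate plus 10 μM unlabelled acetate (both in the added acetate solution) for 3 h at 37°C, 5% CO2. Label incorporated into macromolecules was harvested onto PEI-treated filters and counted by scintillation.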

Each structure is given as a SMILES string.

T1 sequence (Q9NR19 whole entry): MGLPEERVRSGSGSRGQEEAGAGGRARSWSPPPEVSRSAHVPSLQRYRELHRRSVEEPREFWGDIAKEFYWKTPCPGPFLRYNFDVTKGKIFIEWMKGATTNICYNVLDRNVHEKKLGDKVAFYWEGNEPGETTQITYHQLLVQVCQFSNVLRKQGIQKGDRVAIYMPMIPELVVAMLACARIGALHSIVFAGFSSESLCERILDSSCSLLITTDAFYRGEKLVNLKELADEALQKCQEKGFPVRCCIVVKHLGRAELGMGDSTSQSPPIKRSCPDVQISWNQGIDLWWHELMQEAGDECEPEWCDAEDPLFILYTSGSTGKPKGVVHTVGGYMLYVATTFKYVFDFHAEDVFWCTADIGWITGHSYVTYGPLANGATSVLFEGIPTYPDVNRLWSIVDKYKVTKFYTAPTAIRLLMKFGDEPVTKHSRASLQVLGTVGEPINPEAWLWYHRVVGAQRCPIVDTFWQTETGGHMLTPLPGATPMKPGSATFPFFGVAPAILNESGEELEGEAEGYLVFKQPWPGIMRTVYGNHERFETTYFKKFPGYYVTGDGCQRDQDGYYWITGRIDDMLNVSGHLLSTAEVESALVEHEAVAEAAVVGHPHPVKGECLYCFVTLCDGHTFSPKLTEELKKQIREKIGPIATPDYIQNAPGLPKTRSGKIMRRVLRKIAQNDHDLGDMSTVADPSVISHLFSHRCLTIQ

Turning to `CCC(O)CNC(=O)Nc1ccc2nc(C)c(-c3ccccc3)cc2c1Br` (stereo not shown) [Example 87, 1-(5-bromo-2-methyl-3-phenylquinolin-6-yl)-3-(2-hydroxybutyl) urea], the IC50 (on human ACSS2; in assay [1]) was under 100 nM each time.
For the molecule `CCC(O)CNC(=O)Nc1ccc2nc(C(F)(F)F)c(-c3ccccc3)cc2c1` (stereo not shown) [Example 88, 1-(2-hydroxybutyl)-3-(3-phenyl-2-(trifluorometh-yl)quinolin-6-yl)urea], the IC50 was at most 10000 nM on human ACSS2 and over 10000 nM in assay [1].
On to `CC[C@H](O)CNC(=O)Nc1ccc2nc(C)c(-c3ccccc3)cc2c1` [Example 89, (S)-1-(2-hydroxybutyl)-3-(2-methyl-3-phenylquinolin-6-yl)urea], for which the IC50 (at human ACSS2; in assay [1]) was at most 1000 nM each time.
As for `CC[C@@H](O)CNC(=O)Nc1cc2cc(-c3ccccc3)c(-c3ccccc3)nc2cc1F` [Example 90, (R)-1-(7-fluoro-2,3-diphenylquinolin-6-yl)-3-(2-hydroxybutyl) urea], the IC50 (on human ACSS2; in assay [1]) was at most 1000 nM throughout.
Take `CCC(O)CNC(=O)Nc1ccc2nc(-c3ccccc3)c(-c3ccccc3)c(N(C)C)c2c1` (stereo not shown) [Example 91, 1-(4-(dimethylamino)-2,3-diphenylquinolin-6-yl)-3-(2-hydroxybutyl) urea]: the IC50 (on human ACSS2; in assay [1]) was under 100 nM each time.
As to `CC[C@@H](O)CNC(=O)Nc1ccc2nc(-c3ccccc3)c(-c3ccccc3)c(NC(=O)C3CC3)c2c1` [Example 92, (R)-N-(6-(3-(2-hydroxybutyl)ureido)-2,3-diphenylquinolin-4-yl)cyclopropane-carboxamide], the IC50 (on human ACSS2; in assay [1]) was under 100 nM each time.
For `CCC(O)CNC(=O)Nc1ccc2nc(C)c(-c3ccccc3)c(NC(C)=O)c2c1` (stereo not shown) [Example 93, N-(6-(3-(2-hydroxybutyl)ureido)-2-methyl-3-phenylquinolin-4-yl)acetamide], the IC50 is under 100 nM on human ACSS2 and at most 1000 nM in assay [1].
Taken in the same sequence, the figures for `CCC(O)CNC(=O)Nc1ccc2nc(-c3ccccc3)c(-c3ccccc3)c(NS(C)(=O)=O)c2c1` (stereo not shown) [Example 94, N-(6-(3-(2-Hydroxybutyl)ureido)-2,3-diphenylquinolin-4-yl)methanesulfonamide] were under 100 nM and under 100 nM.
With `CCC(O)CNC(=O)Nc1ccc2nc(-c3ccccc3)c(-c3ccccc3)c(N)c2c1` (stereo not shown) [Example 95, 1-(4-Amino-2,3-diphenylquinolin-6-yl)-3-(2-hydroxybutyl)urea], the IC50 (on human ACSS2; in assay [1]) was under 100 nM in each case.
Turning to `CC[C@@H](O)CNC(=O)Nc1ccc2nc(C)c(-c3ccccc3)cc2c1-c1cnn(C)c1` [Example 96, (R)-1-(2-hydroxybutyl)-3-(2-methyl-5-(1-methyl-1H-pyrazol-4-yl)-3-phenylquinolin-6-yl)urea], the IC50 (at human ACSS2; in assay [1]) was under 100 nM each time.
In the case of `CCC(O)CNC(=O)Nc1ccc2nc(-c3ccccc3)c(-c3ccccc3)c(-c3ncco3)c2c1` (stereo not shown) [Example 97, 1-(2-hydroxybutyl)-3-(4-(oxazol-2-yl)-2,3-diphenylquinolin-6-yl)urea], the IC50 (on human ACSS2; in assay [1]) was under 100 nM throughout.
In the case of `CCC(O)CNC(=O)Nc1ccc2nc(C)c(-c3ccccc3)c(C#N)c2c1` (stereo not shown) [Example 98, 1-(4-cyano-2-methyl-3-phenylquinolin-6-yl)-3-(2-hydroxybutyl) urea], the IC50 on human ACSS2 is at most 1000 nM; in assay [1], under 100 nM.
`CCC(CNC(=O)Nc1ccc2nc(C)c(-c3ccccc3)cc2c1)NC(C)=O` (stereo not shown) [Example 99, N-(1-(3-(2-methyl-3-phenylquinolin-6-yl)ureido)butan-2-yl)acetamide]: the IC50 (on human ACSS2; in assay [1]) was at most 1000 nM in each case.
For `CC[C@@H](O)CNC(=O)Nc1ccc2nc(C)c(-c3ccccc3F)cc2c1` [Example 100, (R)-1-(3-(2-fluorophenyl)-2-methylquinolin-6-yl)-3-(2-hydroxybutyl) urea], the IC50 (at human ACSS2; in assay [1]) was under 100 nM throughout.
For the molecule `CC[C@@H](O)CNC(=O)Nc1ccc2nc(-c3ccccc3)c(-c3ccccc3)c(OC)c2c1` [Example 101, (R)-1-(2-Hydroxybutyl)-3-(4-methoxy-2,3-diphenylquinolin-6-yl)urea], the IC50 (at human ACSS2; in assay [1]) was under 100 nM in each case.
Regarding `CC[C@@H](O)CNC(=O)Nc1ccc2nc(C)c(-c3ccccc3)c(OC)c2c1` [Example 102, (R)-1-(2-hydroxybutyl)-3-(4-methoxy-2-methyl-3-phenylquinolin-6-yl)urea], the IC50 (at human ACSS2; in assay [1]) was under 100 nM throughout.
As to `CC[C@@H](O)CNC(=O)Nc1ccc2nc(-c3ccccc3)c(-c3ccccc3)c(C)c2c1` [Example 103, (R)-1-(2-hydroxybutyl)-3-(4-methyl-2,3-diphenylquinolin-6-yl)urea], the IC50 (at human ACSS2; in assay [1]) was under 100 nM each time.
As for `CC[C@@H](O)CNC(=O)Nc1ccc2nc(-c3ccccc3)c(C)c(C(=O)NCc3ccccc3)c2c1` [Example 104, (R)-N-benzyl-6-(3-(2-hydroxybutyl)ureido)-3-methyl-2-phenylquinoline-4-carboxamide], the IC50 (on human ACSS2; in assay [1]) was under 100 nM in each case.
In the case of `CCC(F)(F)CNC(=O)Nc1ccc2nc(C)c(-c3ccccc3)cc2c1` [Example 105, 1-(2,2-difluorobutyl)-3-(2-methyl-3-phenylquinolin-6-yl)urea], the IC50 (at human ACSS2; in assay [1]) was under 100 nM in each case.
Turning to `CCC(F)(F)CNC(=O)Nc1ccc2nc(-c3ccccc3)c(-c3ccccc3)c(C(N)=O)c2c1` [Example 106, 6-(3-(2,2-difluorobutyl)ureido)-2,3-diphenylquino-line-4-carboxamide], the IC50 (at human ACSS2; in assay [1]) was under 100 nM in each case.
Take `CCC(F)(F)CNC(=O)Nc1ccc2nc(-c3ccccc3)c(-c3ccccc3)cc2c1` [Example 107, 1-(2,2-difluorobutyl)-3-(2,3-diphenylquinolin-6-yl)urea]: the IC50 (on human ACSS2; in assay [1]) was under 100 nM each time.
Consider `CC[C@@H](O)CNC(=O)Nc1ccc2nc(-c3ccccc3)c(C)c(C(=O)NC)c2c1` [Example 108, (R)-6-(3-(2-hydroxybutyl)ureido)-N,3-dimethyl-2-phenylquinoline-4-carboxamide], for which the IC50 (on human ACSS2; in assay [1]) was under 100 nM throughout.
As for `CC[C@@H](O)CNC(=O)Nc1ccc2nc(-c3ccccc3)c(C)c(C(N)=O)c2c1` [Example 109, (R)-6-(3-(2-hydroxybutyl)ureido)-3-methyl-2-phenylquinoline-4-carboxamide], the IC50 at human ACSS2 was under 100 nM; in assay [1] it was at most 1000 nM.
Consider `CCC(F)(F)CNC(=O)Nc1ccc2nc(C)c(-c3ccccc3F)cc2c1` [Example 110, 1-(2,2-difluorobutyl)-3-(3-(2-fluorophenyl)-2-methylquinolin-6-yl)urea], for which the IC50 (at human ACSS2; in assay [1]) was under 100 nM in each case.
With `CC[C@@H](O)CNC(=O)Nc1ccc2nc(C)c(-c3ccccc3F)cc2c1-c1ccc[nH]c1=O` [Example 111, (R)-1-(3-(2-fluorophenyl)-2-methyl-5-(2-oxo-1,2-dihydropyridin-3-yl)quinolin-6-yl)-3-(2-hydroxybutyl) urea], the IC50 on human ACSS2 was under 100 nM; in assay [1] it was at most 1000 nM.
Taken in the same sequence, the figures for `CC[C@@H](O)CNC(=O)Nc1ccc2nc(-c3ccccc3)c(-c3ccccc3)c(C(=O)Nc3ccn(C)n3)c2c1` [Example 112, (R)-6-(3-(2-hydroxybutyl)ureido)-N-(1-methyl-1H-pyrazol-3-yl)-2,3-diphenylquino-line-4-carboxamide] were under 100 nM and under 100 nM.
For `CC[C@@H](O)CNC(=O)Nc1ccc2nc(C)c(-c3ccccc3)c(C)c2c1` [Example 113, (R)-1-(2,4-dimethyl-3-phenylquinolin-6-yl)-3-(2-hydroxybutyl) urea] the same measures were under 100 nM and under 100 nM.
On to `CC[C@@H](O)CNC(=O)Nc1ccc2nc(-c3ccccc3)c(C)c(C(=O)NCc3cnn(C)c3)c2c1` [Example 114, (R)-6-(3-(2-hydroxybutyl)ureido)-3-methyl-N-((1-methyl-1H-pyrazol-4-yl)methyl)-2-phenylquinoline-4-carboxamide], for which the results for the IC50 (on human ACSS2; in assay [1]) were under 100 nM and at most 1000 nM, respectively.
Consider `CC[C@@H](O)CNC(=O)Nc1ccc2nc(-c3ccccc3)c(C)c(C(=O)Nc3ccn(C)n3)c2c1` [Example 115, (R)-6-(3-(2-Hydroxybutyl)ureido)-3-methyl-N-(1-methyl-1H-pyrazol-3-yl)-2-phenylquinoline-4-carboxamide], for which the values for the IC50 (at human ACSS2; in assay [1]) were under 100 nM and at most 1000 nM, respectively.
Taken in the same sequence, the figures for `COCCNC(=O)Nc1ccc2nc(C)c(-c3ccccc3F)cc2c1` [Example 116, 1-(3-(2-fluorophenyl)-2-methylquinolin-6-yl)-3-(2-methoxyethyl) urea] were at most 1000 nM and under 100 nM.
For `CC[C@H](CNC(=O)Nc1ccc2nc(-c3ccccc3)c(-c3ccccc3F)cc2c1)OP(=O)(O)O` [Example 117, (R)-1-(3-(3-(2-fluorophenyl)-2-phenylquinolin-6-yl)ureido)butan-2-yl dihydrogen phosphate] the same measures were under 100 nM and under 100 nM.
Take `CCCCCC(=O)Nc1ccc2nc(-c3ccccc3)c(-c3ccccc3)cc2c1` [Example 118, N-(2,3-diphenyl-quinolin-6-yl) hexanamide]: the IC50 (on human ACSS2; in assay [1]) was at most 1000 nM each time.

What is called IC50 is the point on the concentration scale where inhibition reaches its midpoint.
